Laboratory results reported in patent EP0099121A2, “Pharmaceutical compositions” (Bristol-Myers Company, priority 1982, dated 1984).
Read-outs that look alike come from different tables or passages of the source.

System: Gastric Acid Output
Assay: Gastric antisecretory activity in the Gastric Fistula Rat (Table 2 title: Two-Hour Pylorus Ligated Rat)
Assay type: in vivo, Long Evans rats
Settings: numbers in parentheses are the 95% confidence limits
Description: Male Long Evans rats weighing about 240-260 grams at the time of cannula implantation are used. The design and implantation of the stainless steel cannula into the anterior wall of the fore-stomach are carried out essentially as described by Pare et al. [Laboratory Animal Science, 27, 244 (1977)]. The fistula components are designed and the operative procedure is carried out exactly as described in the above reference. Post operatively the animals are individually housed in solid bottom cages with sawdust and are allowed food and water ad libitum throughout the entire recovery period. Animals are not used for test purposes for at least 15 days after the operative procedure.
The animals are fasted but allowed water ad libitum for 20 hours before the testing procedure is to begin. Immediately prior to collection, the cannula is opened and the stomach washed gently with 30-40 mL of warm saline or distilled water to remove any residual contents. The catheter is then screwed into the cannula in place of the plugging screw and the rat is placed in a clear plastic rectangular cage measuring 40 cm long, 15 cm wide and 13 cm high. The bottom of the cage has a slit approximately 1.5 cm wide and 25 cm long running down the center to accommodate the catheter which hangs through it. In this way the rat is not restricted and can move freely about the cage during collection periods. The remainder of the assay is carried out as described by Ridley et al. [Research Comm. Chem. Path. Pharm., 17, 365 (1977)].
Gastric secretions collected during the first hour after washing the stomach are discarded as they may be contaminated. For oral evaluation, the catheter is then removed from the cannula and replaced with the plugging screw. Water (2 mL/kg) is administered orally via gastric intubation and the animal is returned to the cage for 45 minutes. After this time the plugging screw is removed and replaced with a catheter to which a small plastic vial has been attached to collect the gastric secretions. A two hour sample is collected (this represents the control secretion), the catheter removed and replaced with the plugging screw. The test drug is now administered orally in a volume of 2 mL/kg via gastric intubation. Forty-five minutes later the plugging screw is again removed, replaced with the catheter attached to a small plastic vial and another 2 hour sample is collected. The secretions in the second sample are compared to those of the control sample in order to determine the effects of the test drug.
When test compounds are to be evaluated parenterally, the animal is injected ip or sc with the test compound vehicle in a volume of 2 mL/kg immediately after discarding the initial 60 minute collection. A two hour sample is collected (control secretion) and the animals are injected either ip or sc with the test compound in a volume of 2 mL/kg. An additional two hour sample is collected and its secretions are compared to those of the control period to determing drug effects.
The samples are centrifuged in a graduated tube for volume determination. Titratable acidity is measured by titrating a one mL sample to pH 7.0 with 0.02N NaOH, using an Autoburet and an electrometric pH meter (Radiometer). Titratable acid output is calculated in microequivalents by multiplying the volume in milliliters by the acid concentration in milliequivalents per liter.
Results are expressed as percent inhibition relative to control readings. Dose response curves are constructed and ED values are calculated by regression analyses. At least three rats are used at each dosage level and a minimum of three dosage levels are utilized for determination of a dose response curve.

[1] = Rattus norvegicus, ip, Route of Administration i.p., read-out: ED50
[2] = Rattus norvegicus, sc, Route of Administration s.c., read-out: ED50

Question: Which ED50 (Route of Administration s.c.) does the source give for “3-{2-[(5-Dimethylaminomethyl-2-furyl)methy1thio]ethylamino}-4-dodecylamino-1,2,5-thiadiazole 1,1-dioxide [Example 106]” here?
Answer: Its ED50 is roughly 80 µmol/kg.

Question: With “3-{2-[(5-Dimethylaminomethyl-2-furyl)methylthio]-ethylamino}-4-pieridino-1,2,5-thiadiazole 1,1-dioxide [Example 102]” as the compound, how does the ED50 (Route of Administration s.c.) read?
Answer: Its ED50 is roughly 15 µmol/kg.

Question: Which ED50 (Route of Administration s.c.) does the source give for “3-{2-[(5-Dimethylaminomethyl-2-furyl)methylthio]ethyl- amino}-4-dinethylamino-1,2,5-thiadiazole 1,1-dioxide [Example 28]” here?
Answer: The ED50 was 1.39 (0.39-4.91) μmoles/kg.

Question: For `CNCc1ccc(CSCCNC2=NS(=O)(=O)N=C2NC)o1` [20 A], which ED50 (Route of Administration s.c.) is on record?
Answer: The ED50 was 1.15 (0.32-3.7) μmoles/kg.

Question: Which ED50 (Route of Administration s.c.) does the source give for `CNC1=NS(=O)(=O)N=C1NCCCOc1cccc(CN2CCCC2)c1` [144 a] here?
Answer: Its ED50 is 0.095 (0.033-0.30) μmoles/kg.

Question: `CNC1=NS(=O)(=O)N=C1NCCCOc1cccc(CN2CCC(C)CC2)c1` [144 b] was tested. Which ED50 (Route of Administration s.c.) did it give?
Answer: Its ED50 is 0.025 (0.0087-0.065) μmoles/kg.

Question: With `CNC1=NS(=O)(=O)N=C1NCCCOc1cccc(CN2CCOCC2)c1` [144 d] as the compound, how does the ED50 (Route of Administration s.c.) read?
Answer: Its ED50 is 0.91 (0.36-3.2) μmoles/kg.

Question: With `Nc1n[s+]([O-])nc1NCCCOc1cccc(CN2CCCC2)c1` (stereo not drawn) [145 a] as the compound, how does the ED50 (Route of Administration s.c.) read?
Answer: The ED50 was 0.056 (0.021-0.18) μmoles/kg.

Question: For `CC1CCN(Cc2cccc(OCCCNc3n[s+]([O-])nc3N)c2)CC1` (stereo not drawn) [145 b], which ED50 (Route of Administration s.c.) is on record?
Answer: Its ED50 is roughly 0.06 µmol/kg.

Question: With `NC1=NS(=O)(=O)N=C1NCCCOc1cccc(CN2CCOCC2)c1` [146 d] as the compound, how does the ED50 (Route of Administration s.c.) read?
Answer: The ED50 was 0.28 (0.066-1.21) μmoles/kg.

Question: With `C#CCNC1=NS(=O)(=O)N=C1NCCSCc1nc[nH]c1C` [Example 1, 3-{2-[(5-Methyl-1H-imidazol-4-yl)methylthio}ethylamino}-4-(2-propynyl)amino-1,2,5-thiadiazole 1,1-dioxide] as the compound, how does the ED50 [1] read?
Answer: Its ED50 is 12.5 µmol/kg.

Question: `CNC1=NS(=O)(=O)N=C1NCCSCc1nc[nH]c1C` [Example 2] was tested. Which ED50 [2] did it give?
Answer: Its ED50 is roughly 100 µmol/kg.

Question: For `Cc1[nH]cnc1CSCCNC1=NS(=O)(=O)N=C1NCCSCc1csc(N=C(N)N)n1` [Example 3, 3-{2-[(2-Guanidinothiazol-4-yl)methylthio]ethylanino}-4-{2-[(5-methyl-1H-imidazol-4-yl)methylthio]ethylamino}-1,2,5-thiadiazole 1,1-dioxide], which ED50 [1] is on record?
Answer: The ED50 was 0.46 µmol/kg.

Question: With `Cc1[nH]cnc1CSCCNC1=NS(=O)(=O)N=C1O` [Example 7, 3-Hydroxy-4-{2-[(5-methyl-1H-imidazol-4-yl)methylthio]-ethylamino}-1,2,5-thiadiazole 1,1-dioxide] as the compound, how does the ED50 [1] read?
Answer: The ED50 was 31.1 µmol/kg.

Question: Which ED50 [2] does the source give for `C#CCNC1=NS(=O)(=O)N=C1NCCSCc1ccc(CN(C)C)o1` [Example 13, 3-{2-[(5-Dimethylaminomethyl-2-furyl)methvlthio]ethyl-amino}-4-(2-proynyl)amino-1,2,5-thiadiazole 1,1-dioxide] here?
Answer: Its ED50 is 0.46 µmol/kg.

Question: How did the ED50 [2] turn out when `C#CCN(C)Cc1ccc(CSCCNC2=NS(=O)(=O)N=C2NC)o1` [Example 14, 3-Methylamino-4-{2-[(5-([N-methyl-N-(2-propynyl)amino]-methyl}-2-furyl)methylthio]ethylamino}-12,5-thiadiazole 1,1-dioxide] was run?
Answer: Its ED50 is roughly 25 µmol/kg.

Question: For `CN(C)Cc1ccc(CSCCNC2=NS(=O)(=O)N=C2O)o1` [Example 17, 3-{2-[(5-Dimethylaminomethyl-2-furyl)methylthio]ethylamino}-4-hydroxy^-1,2,5-thiadiazole 1,1-dioxide], which ED50 [2] is on record?
Answer: The ED50 was 33 µmol/kg.

Question: Which ED50 [2] does the source give for `C=CCNC1=NS(=O)(=O)N=C1NCCSCc1ccc(CN(C)C)o1` [Example 19, 3-Allylamino-4-{2-[(5-dimethylaminomethyl-2-furyl)methyl-thio]ethylamino}-1,2,5-thiadiazole 1,1-dioxide] here?
Answer: The ED50 was 0.34 µmol/kg.

Question: `CNC1=NS(=O)(=O)N=C1NCCCCc1ccc(CN(C)C)o1` [Example 21, 3-{4-(5-Dimethylaminomethyl-2-furyl)butylamino}-4-methvlamino-1,2,5-thiadiazole 1,1-dioxide] was tested. Which ED50 [2] did it give?
Answer: The ED50 was 0.3 µmol/kg.

Question: How did the ED50 [1] turn out when `C#CCNC1=NS(=O)(=O)N=C1NCCSCc1csc(N=C(N)N)n1` [Example 32, 3-{2-[(2-Guanidinothiazol-4-yl)methyithio]ethylamino}-4-(2-propynyl)amino-1,2,5-thiadiazole 1,1-dioxide] was run?
Answer: The ED50 was 0.08 µmol/kg.

Question: For `CNC1=NS(=O)(=O)N=C1NCCSCc1csc(CN(C)C)n1` [Example 33, 3-{2-[(2-Dimethylaminomethyl-4-thiazolyl)methylthio]ethyl-amino}-4-methylamino-1,2,5-thiadiazole 1,1-dioxide], which ED50 [2] is on record?
Answer: The ED50 was 0.57 µmol/kg.

Question: `N=C(N)Nc1nc(CSCCNC2=NS(=O)(=O)N=C2NCCO)cs1` [Example 36, 3-{2-[(2-Guanidinothiazol-4-yl)methylthio]ethylamino}-4-(2-hydroxyethylamino)-1,2,5-thiadiazole 1,1-dioxide] was tested. Which ED50 [2] did it give?
Answer: The ED50 was 1.59 µmol/kg.

Question: For `CN(C)Cc1ccc(CSCCNC2=NS(=O)(=O)N=C2NN)o1` [Example 51], which ED50 [2] is on record?
Answer: Its ED50 is 55 µmol/kg.

Question: With `CNC1=NS(=O)(=O)N=C1NCCSCc1ccccn1` [Example 52, 3-Methylamino-4-{2-[(2-pyridyl)methylthio]ethylamino}-1,2,5-thiadiazole 1,1-dioxide] as the compound, how does the ED50 [2] read?
Answer: Its ED50 is roughly 350 µmol/kg.

Question: How did the ED50 [2] turn out when `CCNc1n[s+]([O-])nc1NCCSCc1ccc(CN(C)C)o1` (stereo not drawn) [Example 84, 3-{2-[(5-Dimethylaminomethyl-2-furyl)methylthio]ethylartino}-4-ethylamino-1,2,5-thiadiazole 1-oxide] was run?
Answer: The ED50 was 0.15 µmol/kg.

Question: How did the ED50 [2] turn out when `CCCNC1=NS(=O)(=O)N=C1NCCSCc1ccc(CN(C)C)o1` [Example 85, 3-{2-[(5-Dimethylaminomethyl-2-furyl)methylthio]ethylamino}-4-propylamino-1,2,5-thiadiazole 1,1-dioxide] was run?
Answer: Its ED50 is 0.14 µmol/kg.

Question: For `CN(C)Cc1ccc(CSCCNC2=NS(=O)(=O)N=C2NCc2ccccc2)o1` [Example 89, 3-Benzylamino-4-{2-[(5-dimethylaminomethyl-2-furyl)-methylthio]ethylamino}-1,2,5-thiadiazole 1,1-dioxide], which ED50 [2] is on record?
Answer: The ED50 was 0.25 µmol/kg.

Question: Which ED50 [2] does the source give for `CNC1=NS(=O)(=O)N=C1NCCSCc1cccc(CN(C)C)c1` [Example 90, 3-{2-[(3-{Dimethylaminomethyl}phenyl)methylthio]ethylamino}-4-methylamino-1,2,5-thiadiazole 1,1-dioxide] here?
Answer: Its ED50 is 0.86 µmol/kg.

Question: For `CN(C)Cc1cccc(CSCCNc2n[s+]([O-])nc2N)c1` (stereo not drawn) [Example 91, 3-Arnino-4-{2-[(3-{dinethylaninomethyl}henyl)methvlthio}-ethvlamino}-1,2,5-thiadiazole 1-oxide], which ED50 [2] is on record?
Answer: The ED50 was 1.3 µmol/kg.

Question: How did the ED50 [2] turn out when `CNc1n[s+]([O-])nc1NCCSCc1ccc(CN(C)C)s1` (stereo not drawn) [Example 92, 3-{2-[(5-Dimethylaminomethyl-2-thienyl)methylthio]-ethylamino}-4-methylamino-1,2,5-thiadiazole 1-oxide] was run?
Answer: Its ED50 is 0.24 µmol/kg.

Question: With `CN(C)Cc1ccc(CCCCNC2=NS(=O)(=O)N=C2N)o1` [Example 93, 3-Amino-4-{4-(5-dimethylaminomethyl-2-furyl)butylamino}-1,2,5-thiaciazole 1,1-dioxide] as the compound, how does the ED50 [2] read?
Answer: Its ED50 is 0.14 µmol/kg.

Question: For `CN(C)Cc1nc(CSCCNC2=NS(=O)(=O)N=C2N)cs1` [Example 94, 3-A-mino-4-{2-[(2-dinethylaminomethyl-4-thiazolyl)methylthio)-ethylamino}-1,2,5-thiadiazole 1,1-dioxide], which ED50 [2] is on record?
Answer: The ED50 was 0.44 µmol/kg.

Question: For `CNC1=NS(=O)(=O)N=C1NCCSCc1cnc(NC(=N)N)s1` [Example 95, 3-{2-[(2-Guanidinothiazol-5-yl)methylthio]ethylamino}-4-methylamino-1,2,5-thiadiazole 1,1-dioxide], which ED50 [2] is on record?
Answer: Its ED50 is roughly 15 µmol/kg.

Question: Which ED50 [2] does the source give for `NC(N)=Nc1ncc(CSCCNc2n[s+]([O-])nc2N)s1` (stereo not drawn) [Example 96, 3-Psnino-4-{2-[(2-guanidinothiazol-5-yl)methylthio]-ethylamino}-1,2,5-thiadiazole 1-oxide] here?
Answer: Its ED50 is roughly 15 µmol/kg.

Question: For `CN(C)Cc1ccc(CSCCNC2=NS(=O)(=O)N=C2NC2CC2)o1` [Example 97, 3-Cyclopropylamino-4-{2-[(5-dimethylaminomethyl-2-furyl)-methylthio]ethylamino}-1,2,5-thiadiazole 1,1-dioxide], which ED50 [2] is on record?
Answer: The ED50 was roughly 3 µmol/kg.

Question: How did the ED50 [2] turn out when `CN(C)Cc1ccc(CSCCNC2=NS(=O)(=O)N=C2NCC2CC2)o1` [Example 98, 3-Cyclopropylmethylamino-4-{2-[ (5-dimethylaminomethyl-2-furyl)methylthio]ethylamino}-1,2,5-thiadiazole 1,1-dioxide] was run?
Answer: Its ED50 is 0.52 µmol/kg.
